In brackets after ≈: the same amount, converted by molar mass.
Test system: Mycobacterium tuberculosis
Test: Antimycobacterial activity against multidrug-resistant Mycobacterium tuberculosis 375 by microplate Alamar blue assay
Assay type: functional

How did the MIC turn out when O=C(/C=C/c1ccc2c(c1)OCO2)NCc1ccccc1 was run?
The MIC was 667 µM (≈ 188 µg/mL).

For CN(C)c1ccc(CNC(=O)/C=C/c2ccc3c(c2)OCO3)cc1, which MIC is on record?
The MIC was 3560 µM (≈ 1150 µg/mL).

CC(C)=CCOc1ccc(/C=C/C(=O)NCC(C)C)cc1 was tested. Which MIC did it give?
Its MIC is 1200 µM (≈ 345 µg/mL).

How did the MIC turn out when O=C(/C=C/c1ccc2c(c1)OCO2)NCc1ccc(N2CCC(C(F)(F)F)CC2)cc1 was run?
Its MIC is 2310 µM (≈ 1000 µg/mL).

How did the MIC turn out when O=C(/C=C/c1ccc2c(c1)OCO2)NCc1ccccc1Cl was run?
The MIC was 792 µM (≈ 250 µg/mL).

For O=C(/C=C/c1ccc2c(c1)OCO2)NCc1ccc(C(F)(F)F)cc1F, which MIC is on record?
The MIC was 1020 µM (≈ 375 µg/mL).

For O=C(/C=C/c1ccc2c(c1)OCO2)NCc1cc(F)cc(F)c1, which MIC is on record?
The MIC was 788 µM (≈ 250 µg/mL).

Which MIC does the source give for O=C(/C=C/c1ccc2c(c1)OCO2)NCc1ccc(N2CCC(c3ccc(F)cc3)CC2)cc1 here?
The MIC was 545 µM (≈ 250 µg/mL).

Which MIC does the source give for COc1cccc(CNC(=O)/C=C/c2ccc3c(c2)OCO3)c1 here?
Its MIC is 803 µM (≈ 250 µg/mL).

Test system: Mycobacterium tuberculosis
Test: Antimycobacterial activity against multidrug-resistant Mycobacterium tuberculosis 375
Assay type: functional

How did the MIC turn out when CC(C)CNC(=O)/C=C/c1ccc2c(c1)OCO2 [FOGARAMIDE] was run?
Its MIC is 1010 µM (≈ 250 µg/mL).
